Assay results reported in patent US20260345641A1, “COMPOSITIONS AND USES THEREOF” (Algorae Pharmaceuticals Ltd, priority 2023, published 2026).

Test system: SH-SY5Y cells
Assay: Gene expression analysis by RNA sequencing in the presence of Aβ
Assay type: cell-based, human
Details: 5 μM, with Aβ
From the text: The SH-S5Y5 neuroblastoma cell line was used for pre-clinical analysis. The SH-S5Y5 cell line is commonly used as a model for neurodegenerative disorders as the cells can be converted to various types of functional neurons by the addition of specific compounds (see, e.g., Xicoy et al., 2017, Molecular Neurodegeneration, 12: 10). In addition, the SH-S5Y5 cell line has been used widely in experimental neurological studies, including analysis of neuronal differentiation, metabolism, and function related to neurodegenerative processes, neurotoxicity and neuroprotection (see, e.g., Datki et al., 2003, Brain Research Bulletin, 62(3): 22-229; and Xie et al., 2010, Chinese Medical Journal, 123(8): 1086-1092).
Total RNA was isolated from cells using TRIzol in accordance with the manufacturer's instructions (Invitrogen, Carlsbad, CA, USA). RNA concentration and quality was assessed using a NanoDrop spectrophotometer. Only samples with a 260/280 ratio of ≥1.8 were used for further analysis.
Messenger RNA (mRNA) was purified from total RNA using poly-T oligo attached magnetic beads. After fragmentation, cDNA synthesis was performed in accordance with the manufacturer's instructions (Illumina, San Diego, CA, USA) to generate a directional and non-directional library. Libraries were checked with Qubit, real-time PCR was performed for quantification, and size distribution detection was performed using the Bioanalyzer. Quantified libraries were pooled and sequenced on an Illumina platform, according to the manufacturer's instructions.
Raw reads were filtered and mapped to human reference genome (GRCh38/hg38) using HISAT2. Differential gene expression analysis was performed using R Package DEG seq2. […] Manual annotation of genes previously associated with specific neurodegenerative disorders and dementias was performed following a text mining analysis.

COc1cc2c(cc1OC)C(=O)C(CC1CCN(Cc3ccccc3)CC1)C2 (stereo not shown) [Donepezil]
MEG3 gene expression (control 0.007, P 0.038): 0.008 | SAMD12 gene expression (control 0.011, P 0.052): 0.002 | TNF gene expression (control 0.032, P 0.046): 0.026 | ATXN7 gene expression (control 0.042, P 0.014): 0.150 | PRICKLE2 gene expression (control 0.060, P 0.007): 0.085 | IRF4 gene expression (control 0.076, P 0.050): 0.010 | NRXN1 gene expression (control 0.085, P 0.007): 0.125 | DNAH8 gene expression (control 0.090, P 0.017): 0.009 | MME gene expression (control 0.091, P 0.004): 0.240 | CLN3 gene expression (control 0.092, P 0.051): 0.093 | DMD gene expression (control 0.166, P 0.017): 0.352 | PPP2R2B gene expression (control 0.179, P 0.056): 0.146 | PRSS23 gene expression (control 0.196, P 0.022): 0.193 | ACE gene expression (control 0.209, P 0.004): 0.644 | A2M gene expression (control 0.242, P 0.006): 0.122 | TCIRG1 gene expression (control 0.302, P 0.023): 0.340 | SLC1A1 gene expression (control 0.314, P 0.003): 0.482 | NTNG1 gene expression (control 0.327, P 0.009): 0.249 | NTRK2 gene expression (control 0.329, P 0.015): 0.700 | PIH1D2 gene expression (control 0.334, P 0.023): 0.137 | TUBA4A gene expression (control 0.334, P 0.053): 0.432 | FGFR2 gene expression (control 0.353, P 0.053): 0.228 | PDE11A gene expression (control 0.366, P 0.020): 0.416 | TUNAR gene expression (control 0.382, P 0.009): 0.441 | RETREG1 gene expression (control 0.386, P 0.001): 0.774 | SORL1 gene expression (control 0.455, P 0.009): 0.683 | DPY19L2P2 gene expression (control 0.469, P 0.040): 0.560 | TRIM9 gene expression (control 0.529, P 0.008): 1.021 | MATR3 gene expression (control 0.559, P 0.001): 0.511 | SYCE2 gene expression (control 0.567, P 0.049): 0.604 | PLA2G6 gene expression (control 0.634, P 0.016): 0.830 | DEPDC5 gene expression (control 0.656, P 0.020): 0.683 | CLN5 gene expression (control 0.695, P 0.004): 0.652 | SLC9B1 gene expression (control 0.735, P 0.053): 0.713 | PLAU gene expression (control 0.799, P 0.005): 1.790 | ATXN1 gene expression (control 0.851, P 0.002): 1.152 | IRAK1BP1 gene expression (control 0.866, P 0.030): 0.848 | PRPH gene expression (control 0.870, P 0.011): 1.132 | FHIT gene expression (control 0.882, P 0.033): 1.086 | CFAP43 gene expression (control 0.931, P 0.049): 0.636 | TMEM63A gene expression (control 0.954, P 0.055): 1.141 | LRRC56 gene expression (control 0.982, P 0.002): 1.129 | PARD3B gene expression (control 0.986, P 0.002): 1.168 | ADCY5 gene expression (control 1.228, P 0.036): 1.662 | DISC1 gene expression (control 1.302, P 0.033): 1.242 | KCNT1 gene expression (control 1.355, P 0.002): 1.707 | GAN gene expression (control 1.529, P 0.018): 1.495 | DPP10 gene expression (control 1.590, P 0.009): 1.562 | CHRNB4 gene expression (control 1.624, P 0.018): 2.920 | MEF2C gene expression (control 1.668, P 0.044): 1.624 | PACRG gene expression (control 1.720, P 0.027): 1.797 | CDKL5 gene expression (control 1.735, P 0.001): 2.077 | SIL1 gene expression (control 1.736, P 0.021): 1.886 | PDLIM3 gene expression (control 1.777, P 0.026): 3.231 | MT-TH gene expression (control 1.782, P 0.047): 0.388 | MT-TD gene expression (control 1.849, P 0.032): 2.334 | MMACHC gene expression (control 1.874, P 0.018): 1.731 | ZFYVE26 gene expression (control 1.909, P 0.032): 1.930 | TMLHE gene expression (control 1.915, P 0.004): 2.188 | MAPT gene expression (control 1.915, P 0.007): 2.615 | MSRA gene expression (control 1.969, P 0.027): 1.709 | COQ2 gene expression (control 1.970, P 0.055): 1.406 | PINK1-AS gene expression (control 1.974, P 0.029): 1.689 | DLG2 gene expression (control 1.977, P 0.041): 2.816 | FZD3 gene expression (control 1.990, P 0.010): 2.276 | KATNAL2 gene expression (control 2.005, P 0.000): 2.056 | ALMS1 gene expression (control 2.170, P 0.003): 2.220 | HOTAIR gene expression (control 2.219, P 0.008): 1.982 | SETD1B gene expression (control 2.501, P 0.005): 3.039 | DRD2 gene expression (control 2.532, P 0.031): 4.790 | SMARCA2 gene expression (control 2.546, P 0.044): 2.658 | MFSD8 gene expression (control 2.553, P 0.038): 2.381 | BDNF gene expression (control 2.554, P 0.014): 0.255 | ABCA7 gene expression (control 2.607, P 0.032): 2.087 | FSD1L gene expression (control 2.639, P 0.002): 2.451 | ROGDI gene expression (control 2.747, P 0.055): 3.041 | SPG7 gene expression (control 2.790, P 0.011): 2.471 | MT-TW gene expression (control 2.846, P 0.019): 2.620 | ATP1A3 gene expression (control 2.847, P 0.021): 3.739 | ATL1 gene expression (control 2.891, P 0.027): 3.208 | GM2A gene expression (control 2.985, P 0.005): 5.621 | LYST gene expression (control 3.000, P 0.053): 2.468 | APOL2 gene expression (control 3.111, P 0.054): 3.390 | DCX gene expression (control 3.114, P 0.003): 3.488 | IFT74 gene expression (control 3.453, P 0.032): 4.207 | CLN8 gene expression (control 3.580, P 0.014): 2.847 | RBM12 gene expression (control 3.638, P 0.000): 3.884 | PRICKLE1 gene expression (control 3.757, P 0.002): 3.333 | DPH1 gene expression (control 3.762, P 0.040): 3.962 | TRAPPC9 gene expression (control 3.776, P 0.021): 4.781 | EIF2B3 gene expression (control 3.828, P 0.043): 3.200 | PDE10A gene expression (control 3.855, P 0.030): 3.147 | TRAPPC2 gene expression (control 3.872, P 0.053): 4.012 | C9orf72 gene expression (control 3.921, P 0.001): 8.663 | TFEB gene expression (control 4.181, P 0.001): 2.618 | PODXL gene expression (control 4.194, P 0.011): 4.847 | ATP6V0A2 gene expression (control 4.281, P 0.017): 4.607 | TTC21B gene expression (control 4.351, P 0.026): 4.248 | VPS13D gene expression (control 4.370, P 0.001): 4.565 | PIGQ gene expression (control 4.438, P 0.008): 4.983 | PTPRM gene expression (control 4.505, P 0.000): 4.710 | RHOBTB2 gene expression (control 4.522, P 0.012): 5.349 | MRE11 gene expression (control 4.546, P 0.036): 4.436 | EHMT1 gene expression (control 4.566, P 0.010): 4.445 | CYLD gene expression (control 4.607, P 0.036): 3.887 | PRDM8 gene expression (control 4.779, P 0.013): 3.461 | RNF213 gene expression (control 4.801, P 0.002): 5.276 | USP8 gene expression (control 4.840, P 0.047): 3.827 | LIG3 gene expression (control 4.935, P 0.007): 5.232 | MIAT gene expression (control 5.041, P 0.014): 6.814 | JAM2 gene expression (control 5.256, P 0.040): 4.131 | PSEN2 gene expression (control 5.259, P 0.051): 5.579 | LMBRD1 gene expression (control 5.367, P 0.022): 5.309 | NPC1 gene expression (control 5.515, P 0.001): 6.062 | OPA1 gene expression (control 5.517, P 0.001): 9.622 | VAPB gene expression (control 5.611, P 0.005): 5.235 | ANXA11 gene expression (control 5.661, P 0.025): 6.974 | MT-TI gene expression (control 5.685, P 0.038): 4.404 | GOSR2 gene expression (control 5.846, P 0.000): 5.640 | LDLR gene expression (control 5.953, P 0.003): 7.563 | DDHD2 gene expression (control 6.006, P 0.000): 6.144 | SREBF1 gene expression (control 6.248, P 0.024): 8.317 | SLC25A24 gene expression (control 6.258, P 0.036): 5.685 | CREB1 gene expression (control 6.333, P 0.006): 7.340 | FIG4 gene expression (control 6.430, P 0.051): 6.116 | BLMH gene expression (control 6.516, P 0.013): 6.896 | APTX gene expression (control 6.525, P 0.011): 6.767 | TPP1 gene expression (control 6.541, P 0.009): 7.171 | ADAM10 gene expression (control 6.563, P 0.019): 5.824 | MT-TA gene expression (control 6.758, P 0.027): 2.804 | RAB33A gene expression (control 6.793, P 0.003): 6.922 | MT-TC gene expression (control 6.838, P 0.052): 10.995 | MECP2 gene expression (control 6.880, P 0.033): 5.530 | SPAST gene expression (control 6.944, P 0.053): 5.978 | TMEM106B gene expression (control 7.108, P 0.005): 6.957 | CRAT gene expression (control 7.227, P 0.031): 9.692 | CSTB gene expression (control 7.261, P 0.008): 9.549 | IRF6 gene expression (control 7.365, P 0.000): 5.933 | TRPM7 gene expression (control 7.393, P 0.030): 5.958 | OTUD6B gene expression (control 7.405, P 0.048): 6.534 | MAPK8 gene expression (control 7.482, P 0.022): 9.392 | POLR1C gene expression (control 7.525, P 0.034): 6.234 | CHCHD10 gene expression (control 7.586, P 0.010): 11.163 | ATL3 gene expression (control 7.656, P 0.030): 6.616 | WDR37 gene expression (control 7.709, P 0.023): 7.870
